Results on 13 compounds are retold here after patent publication US20080234286A1 (CHEMAGIS Ltd., priority 2007, published 2008).

Where a name gives a salt, the structure may show the parent alone.

Format in all cases: physicochemical
Data set [1] is described as follows: Water content by Karl Fischer titration.
Protocol: The water content measurements were carried out using a Karl Fischer Titrator (Mettler Toledo Model DL-53), according to standard procedures.
A short description of data set [2]: Physical nature / hygroscopicity of the obtained solid (observation). To be noted: as obtained after drying.
Data set [3] is described as follows: Bulk and tapped density (Vankel tapped density tester).
Protocol: Bulk and tapped densities were measured using Varian's Vankel tapped density tester model 50-2300.
A short description of data set [4]: Retention of amorphous form after compressing at high pressure, checked by X-ray diffractometer. To be noted: about 7.5 tons/cm^2 for 15 minutes. As for the experimental part:
X-ray diffraction data were acquired using a PHILIPS X-ray diffractometer model PW1050-70. System description: Kα1=1.54178 Å, voltage 40 kV, current 28 mA, diversion slit=1°, receiving slit=0.2 mm, scattering slit=1° with a Graphite monochromator. Measurements of 2θ values typically are accurate to within ±0.2 degrees. Experiment parameters: pattern measured between 2θ=3° and 2θ=30° with 0.05° increments; count time was 0.5 second per increment. […]
The four samples, marked as 1-4, were checked by X-ray diffractometer after compressing and the results are detailed in Table 5.

Data set [5] is described as follows: Storage stability of packed compressed tablets (amorphous form, purity by HPLC). The source says:
The term “remains stable”, as defined herein, refers to lack of formation of impurities, while being stored as described herein (see Example 11).
The compressed tablets were packed in a packing comprising internal sealed polyethylene bag, containing the tablets, which was inserted into a middle opaque (e.g., black) polyethylene bag, which was then sealed, wherein the packaging was sealed effectively to prevent penetration of humidity and/or oxygen. The polyethylene bag was packed and sealed in a laminated aluminum bag containing silica.
The samples were packed in the above-mentioned packaging and stored at room temperate and at 40° C. Samples were withdrawn periodically after 5, 8, 13 and 30 days and the purity of the withdrawn material was checked by HPLC.

For `Cc1ccc(NC(=O)c2ccc(CN3CCN(C)CC3)cc2)cc1Nc1nccc(-c2cccnc2)n1` [Reference Example 1, imatinib mesylate, reference compound], in data set [1], the “% water in the product” value is given as 2.2%. For the same compound, the “physical nature of the obtained solid (hygroscopicity, flow)” value (from here on “physical nature of the obtained solid”) in data set [2] is listed as “glassy deliquescent material”.
`Cc1ccc(NC(=O)c2ccc(CN3CCN(C)CC3)cc2)cc1Nc1nccc(-c2cccnc2)n1` [Example 8, imatinib mesylate]: in data set [1], the “% water in the product” value came out at 3.8%.
As for `Cc1ccc(NC(=O)c2ccc(CN3CCN(C)CC3)cc2)cc1Nc1nccc(-c2cccnc2)n1` [Example 4, imatinib mesylate], in data set [1], the “% water in the product” value is on record as 3.7%.
The same measure, in the same setting: in the case of `Cc1ccc(NC(=O)c2ccc(CN3CCN(C)CC3)cc2)cc1Nc1nccc(-c2cccnc2)n1` [Example 10, imatinib mesylate] it was 3.2%.
With `Cc1ccc(NC(=O)c2ccc(CN3CCN(C)CC3)cc2)cc1Nc1nccc(-c2cccnc2)n1` [Reference Example 2, imatinib mesylate, reference compound], the “% water in the product” value in data set [1] is listed as 1.7%. The “physical nature of the obtained solid” value in data set [2] is “very electrostatic and tended to agglomerate”.
With `Cc1ccc(NC(=O)c2ccc(CN3CCN(C)CC3)cc2)cc1Nc1nccc(-c2cccnc2)n1` [Example 1, imatinib mesylate], in data set [1], the “% water in the product” value was found to be 4.1%. Besides, the “physical nature of the obtained solid” value in data set [2] is “non-hygroscopic and free-flowing”.
As to `Cc1ccc(NC(=O)c2ccc(CN3CCN(C)CC3)cc2)cc1Nc1nccc(-c2cccnc2)n1` [Example 5, imatinib mesylate], in data set [1], the “% water in the product” value was 4.8%.
Same read-out and setting: as for `Cc1ccc(NC(=O)c2ccc(CN3CCN(C)CC3)cc2)cc1Nc1nccc(-c2cccnc2)n1` [Example 9, imatinib mesylate], the figure is 4.9%.
Consider `Cc1ccc(NC(=O)c2ccc(CN3CCN(C)CC3)cc2)cc1Nc1nccc(-c2cccnc2)n1` [Example 2, imatinib mesylate], for which, in data set [3], the bulk density turned out to be 0.29 g/mL and the tapped density came to 0.39 g/mL.
Turning to `Cc1ccc(NC(=O)c2ccc(CN3CCN(C)CC3)cc2)cc1Nc1nccc(-c2cccnc2)n1` [amorphous imatinib mesylate, imatinib mesylate], the “solid form after being compressed” value in data set [4] is listed as “remains in amorphous form”. The “stability and amorphous form on storage” value is “remains stable and maintains its amorphous form” in data set [5] (stored at 25° C. for at least a month); “remains stable and maintains its amorphous form” in data set [5] (stored at 40° C. for at least a month).
For `Cc1ccc(NC(=O)c2ccc(CN3CCN(C)CC3)cc2)cc1Nc1nccc(-c2cccnc2)n1` [Example 3, imatinib mesylate], the “% water in the product” value in data set [1] turned out to be 4.1%.
On the same count and under the same terms, in the case of `Cc1ccc(NC(=O)c2ccc(CN3CCN(C)CC3)cc2)cc1Nc1nccc(-c2cccnc2)n1` [Example 7, imatinib mesylate] it was 4.3%; in that of `Cc1ccc(NC(=O)c2ccc(CN3CCN(C)CC3)cc2)cc1Nc1nccc(-c2cccnc2)n1` [Example 6, imatinib mesylate], 3.8%.
